US20110144014A1, “CYTOKINE RECEPTOR MODULATORS AND USES THEREOF” (CENTRE HOSPITALIER UNIVERSITAIRE SAINTE-JUSTINE, priority 2005, published 2011)
Where a SMILES comes first, the peptide text is derived from it. [ ]: non-standard residue; d: D form.

Key:
[1] = target: T1, IL-1R/IL-1RacP (Rattus norvegicus, UniProt Q02955+Q63621); experiment: IL-1β induced hypotension in rats; assay type: in vivo
T1 construct: 300 g Sprague-Dawley rats were anesthetized with isoflurane; from tissue; host or cells: whole animal (Sprague-Dawley rat)
T1 sequence (Q02955 20-576): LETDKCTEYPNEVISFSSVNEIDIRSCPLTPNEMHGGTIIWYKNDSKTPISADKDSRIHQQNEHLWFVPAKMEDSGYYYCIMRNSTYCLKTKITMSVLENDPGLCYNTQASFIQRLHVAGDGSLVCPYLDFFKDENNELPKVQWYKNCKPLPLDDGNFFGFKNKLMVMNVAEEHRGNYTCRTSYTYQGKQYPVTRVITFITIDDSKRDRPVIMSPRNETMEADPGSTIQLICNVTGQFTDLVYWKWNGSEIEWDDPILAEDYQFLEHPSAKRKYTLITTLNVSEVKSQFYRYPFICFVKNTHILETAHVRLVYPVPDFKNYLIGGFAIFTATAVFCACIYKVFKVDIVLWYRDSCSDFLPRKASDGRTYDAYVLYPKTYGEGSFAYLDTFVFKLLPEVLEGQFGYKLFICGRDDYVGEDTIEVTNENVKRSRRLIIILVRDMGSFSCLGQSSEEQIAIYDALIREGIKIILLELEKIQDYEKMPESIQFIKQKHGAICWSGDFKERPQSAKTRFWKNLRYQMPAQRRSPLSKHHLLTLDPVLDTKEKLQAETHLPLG
T1 sequence (Q63621 21-570): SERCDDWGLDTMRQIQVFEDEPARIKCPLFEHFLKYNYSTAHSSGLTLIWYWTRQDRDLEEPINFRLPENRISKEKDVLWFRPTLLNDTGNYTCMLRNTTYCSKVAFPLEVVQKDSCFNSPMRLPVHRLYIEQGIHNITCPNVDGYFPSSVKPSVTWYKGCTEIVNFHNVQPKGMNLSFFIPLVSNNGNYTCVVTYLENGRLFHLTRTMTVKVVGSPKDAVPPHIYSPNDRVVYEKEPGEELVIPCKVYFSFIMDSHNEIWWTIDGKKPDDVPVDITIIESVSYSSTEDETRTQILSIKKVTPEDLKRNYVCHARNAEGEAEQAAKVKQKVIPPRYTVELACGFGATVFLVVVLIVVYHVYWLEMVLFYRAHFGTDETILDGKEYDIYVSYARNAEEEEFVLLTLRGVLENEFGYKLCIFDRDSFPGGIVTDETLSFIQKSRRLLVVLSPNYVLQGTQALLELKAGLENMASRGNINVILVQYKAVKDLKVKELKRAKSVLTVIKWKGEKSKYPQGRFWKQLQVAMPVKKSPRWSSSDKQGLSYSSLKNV
Method: The goal of the next experiment was to verify whether the identified peptides can reverse the physiological actions of the natural cytokine in vivo either by injecting them through the jugular or directly in the stomach (to verify the stability of the peptide through the digestive tractus). 300 g Sprague-Dawley rats were anesthetized with isoflurane (2.5-4%). IL-1β was injected through the jugular. Blood was taken from the carotid for further analyses before and after (10 minutes) every injection. Peptides were then injected either directly in the stomach with a catheter or in the jugular at the concentration desired. Arterial blood pressure and other physiological characteristics were monitored at all times.
The API-101 derivatives, API-101.10 (and others) were also tested to assess whether they could reverse the physiological actions of the natural ligand in vivo by injecting the derivative through the jugular or directly into the stomach (to verify the stability of the peptide through the digestive tract). […] Arterial blood pressure and heart rate were continuously monitored (Gould) while temperature and blood gases (Radiometer) were measured for routine analysis as previously described (Li et al., Am. J. Physiol. 273:R1283-R1290, 1997; Hardy et al., Pediatr. Res. 46:375-382, 1999; Najarian et al., Circ. Res. 87:1149-1156, 2000). […]

[2] = target: T2, IL-1R/IL-1RacP (Sus scrofa, UniProt A0A5G2QSI4); experiment: Vasomotricity of piglet pial vessels (IL-1β induced vasodilation); conditions: vasodilation induced by IL-1
T2 construct: Slices of brain exposing the pial vessels; from tissue; host or cells: piglet brain slices, pial vessels
T2 sequence (A0A5G2QSI4 21-572): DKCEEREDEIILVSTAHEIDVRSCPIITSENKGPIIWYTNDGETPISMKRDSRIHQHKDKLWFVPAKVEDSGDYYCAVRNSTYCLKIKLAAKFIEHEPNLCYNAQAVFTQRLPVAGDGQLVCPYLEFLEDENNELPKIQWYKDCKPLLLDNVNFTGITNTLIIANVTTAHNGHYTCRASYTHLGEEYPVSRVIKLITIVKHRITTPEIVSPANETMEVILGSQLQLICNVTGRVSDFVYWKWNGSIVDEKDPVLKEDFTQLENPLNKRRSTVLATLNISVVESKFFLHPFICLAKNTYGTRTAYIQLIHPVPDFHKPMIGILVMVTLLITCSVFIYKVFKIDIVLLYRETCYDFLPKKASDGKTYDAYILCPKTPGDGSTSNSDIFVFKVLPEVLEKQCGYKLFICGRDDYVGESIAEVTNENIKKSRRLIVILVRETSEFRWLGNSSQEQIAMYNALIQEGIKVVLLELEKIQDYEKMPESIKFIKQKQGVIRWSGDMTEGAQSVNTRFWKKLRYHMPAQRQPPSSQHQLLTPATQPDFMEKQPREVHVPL
Method: In another experiment, vasomotricity variation of piglets pial vessels was studied to further evaluate the particular effect of cytokine receptor subfragments on the vasodilatator effect of IL-1β. Brains were dissected from Yorkshire piglets. Slices of brain exposing the pial vessels were pinned to a wax base of a 20 ml bath containing Krebs buffer (pH 7.4) equilibrated with 95% O2-5% CO2 and maintained at 37° C. Microvessels were visualized and recorded using a video camera mounted on a dissecting microscope. Vascular diameter was measured using a digital image analyzer and the images were recorded before and after topical application of constricting agent U46619 at 10^−7M. After stabilization of the vasomotricity, IL-1 ? was added until stabilization of vasodilatation. Peptides were then injected at different concentrations from 10^−10 to 10^−5M. Reversal of vasodilatation (i.e., vasoconstriction) was visualized and measured as described above. IL-1 ? induced vasodilatation in the microvasculature of the piglet brain was observed. Examples of the inhibitory activity of cytokine subfragment peptides are given below.

Structure (SMILES): CC(C)C[C@@H](NC(=O)[C@@H](CCC(=O)O)NC(=O)[C@H](NC(=O)[C@H](NC(=O)[C@@H](Cc1ccc(O)cc1)NC(=O)[C@H](N)CCCNC(=N)N)[C@H](C)O)C(C)C)C(=O)N[C@H](C)C(N)=O [API-101.10, RYTVELA] (H-[dR][dY][dT][dV][dE][dL][dA]-NH2; N-terminus and C-terminus assumed)
- reduction of IL-1β induced hypotension ([1]; directly into the stomach, 10^−5M): 60%
- prevention of IL-1β induced hypotension ([1]; jugular vein injection, 10^−8M, IL-1β 5 μg/kg): 95%
- potency relative to API-101 [2]: 100 fold
